Measured values from article PMC7374170, “TRIB3-EGFR interaction promotes lung cancer progression and defines a therapeutic target” (Nature Communications, 2020).

Columns and labels:
[1] = tested on: cell surface EGFR in A549 cells; test: Cell surface EGFR by flow cytometry, A549; assay type: cell-based, human
Procedure: Fig. 2 TRIB3 promotes EGFR recycling to enhance its stability and signaling activity. a Control or TRIB3-silenced A549 cells were treated with cycloheximide (CHX) (10 µg ml^−1) at indicated intervals and protein stability of EGFR was analyzed by IB. Data are means ± SEM of four independent assays. b A549 cells stably expressed control-shRNA or TRIB3-shRNA plasmid were stimulated with or without EGF (100 ng ml^−1) for 1 h. Indicated proteins were analyzed by IB analysis. Data represent means ± SEM of three independent assays. c Confocal microscopy images show the distribution of EGFR and early endosome antigen 1 (EEA-1) in control or TRIB3-silenced A549 cells before and after 0.5 or 1 h of EGF (100 ng ml^−1) stimulation. Quantification of EGFR and EEA-1 colocalization was shown as Pearson’s coefficient. Data are means ± SEM of three independent assays. d Quantitative analyses of cell surface EGFR in A549 cells stably expressed control-shRNA or TRIB3-shRNA1. Cells were preincubated with DMSO or 10 μM monensin for 4 h, and then treated with or without EGF (100 ng ml^−1) for another 1 h. The Mean Fluorescence Intensity (MFI) of EGFR on cell surface was detected by flow cytometry analysis. Top: representative flow cytometry data. Bottom: the data were normalized to A549/control-shRNA cells without EGF stimulation, which was considered as 100% MFI signal. Data are means ± SEM of three independent assays. e EGFR recycling was detected in A549 cells stably expressed control-shRNA or TRIB3-shRNA1 plasmid. Data are means ± SEM of three independent assays. f Colocalization analysis of EGFR with Rab11 and LAMP-1 before or after 30 min EGF treatment in control and TRIB3-silenced A549 cells. Quantification of EGFR/Rab11 or EGFR/LAMP-1 colocalization was shown as Pearson’s coefficient. Data represent means ± SEM of three independent assays. Statistical significance between two groups was determined with two-tailed Student’s t test. Statistical significance among groups was determined by one-way ANOVA test. Source data are provided as a Source Data file. […]
Live cells were stained with Alexa-Fluro 488 anti-EGFR antibody (Santa Cruz, R-1, #sc-101
AF488, 1:100). Analysis was performed using a PARTEC EPICSXL (Germany) and data was
analyzed using FCS Express 6. […]

[2] = tested on: proteinase K; test: Metabolic stability of peptide: proteinase K resistance; assay type: in vitro ADME; details: panel Fig.S6e
Procedure: Metabolic stability of peptide
The sample solution consisted of 15 µl peptide solution (1 mM ) and 585 µl Tris-HCl (pH = 7.4) buffer. Pepsin solution (4,500 U ml-1, 8 µl) or proteinase K solution (4 ng ml-1, 8 µl) was added to the sample solution and incubated at 25℃ for indicated times. Peptide concentrations were […]
detected by Exactive™ Plus Orbitrap (Thermo Fisher Scientific, USA). […]

[3] = tested on: EGFR signaling proteins in xenograft tumors; test: Immunoblot / CO-IP of xenograft tumor tissue; assay type: in vivo; details: NCI-H1975 inoculated mice, long-term treatment
Procedure: Data in a–d are presented as means ± SEM, n = 8. e The EGFR–TRIB3 or EGFR–PKCα interaction in xenograft tumors from indicated mice were detected with CO-IP assays. […] Data are means ± SEM of three independent assays. Statistical significance between two groups was determined with two-tailed Student’s t test. Statistical significance among groups was determined by one-way ANOVA test.
Data are means ± SEM, n = 8. d, EGFR and its signaling proteins in xenograft tumors from NCI-H1975 inoculated mice were detected by IB. e, Stem cell markers in xenograft tumors from NCI-H1975 inoculated mice mice were detected by IB. f, Expressions of TRIB3 and EGFR were detected by IB in tumor samples from PDX mice. g, NCI-H1975 cells were treated with 5 µM of the indicated peptides or 0.5 µM AZD9291for 24 hr. The expression of indicated proteins was detected with IB. h, NCI-H1975 cells were treated with 5 µM of the indicated peptides for 24 hr. The expression of several receptor tyrosine kinases was detected with IB. i, NCI-H1975 cells were pretreated with 5 µM of the indicated peptides for 12 hr. […] The indicated proteins were detected by IB. […] Statistical significance between two groups was determined by two-tailed Student’s t-test; Statistical significance among groups was determined by one-way ANOVA test. […]
analysis. Signals were detected by Tanon 5200 chemiluminescent imaging system (Tanon, […]

[4] = tested on: NCI-H1975 cells; test: Immunoblot of EGFR, HER2 and receptor tyrosine kinases, NCI-H1975 cells; assay type: cell-based, human
Procedure: Data are means ± SEM, n = 8. d, EGFR and its signaling proteins in xenograft tumors from NCI-H1975 inoculated mice were detected by IB. e, Stem cell markers in xenograft tumors from NCI-H1975 inoculated mice mice were detected by IB. f, Expressions of TRIB3 and EGFR were detected by IB in tumor samples from PDX mice. g, NCI-H1975 cells were treated with 5 µM of the indicated peptides or 0.5 µM AZD9291for 24 hr. The expression of indicated proteins was detected with IB. h, NCI-H1975 cells were treated with 5 µM of the indicated peptides for 24 hr. The expression of several receptor tyrosine kinases was detected with IB. i, NCI-H1975 cells were pretreated with 5 µM of the indicated peptides for 12 hr. The cells were then incubated with CHX (10 µg ml-1) for indicated times. The indicated proteins were detected by IB. Data are means ± SEM of 3 independent assays. Data in d-h are representatives of 3 independent assays. Statistical significance between two groups was determined by two-tailed Student’s t-test; Statistical significance among groups was determined by one-way ANOVA test. Source data are provided as a Source Data ﬁle.
Immunoblotting, Immunostaining and Immunohistochemistry
Proteins were extracted from cells and tissues using a RIPA lysis buffer (Applygen
Technologies Inc. Beijing, China). Equal protein amounts were loaded for SDS-PAGE,
followed by transfer to polyvinylidene difluoride membranes, and subjected to immunoblot
analysis. Signals were detected by Tanon 5200 chemiluminescent imaging system (Tanon,
Shanghai, China). The western blots were scanning densitometry using Gel Pro Analyzer 3.2
and calculated relative to GAPDH. If not specifically indicated, the data was presented as means
± SEMs of 3 independent biological experiments.

[5] = tested on: NCI-H1975 cells; test: NCI-H1975 subcutaneous xenograft (tumor growth, tumor weight, metastasis); assay type: in vivo, BALB/c nude mice; details: dose not given
[6] = tested on: A549 cells; test: A549 subcutaneous xenograft (tumor growth, tumor weight, liver metastasis); assay type: in vivo, BALB/c nude mice; details: dose not given
Source text: Fig. 7 Targeting EGFR stability inhibits lung cancer initiation and progression. a A549 tumor growth curves under different treatment. b Quantitative analysis of metastatic nodule numbers from mice as described in a. c NCI-H1975 tumor growth curves under different treatment. d Quantitative analysis of metastatic nodule numbers from mice as described in c. Data in a–d are presented as means ± SEM, n = 8. e The EGFR–TRIB3 or EGFR–PKCα interaction in xenograft tumors from indicated mice were detected with CO-IP assays. […] Statistical difference was determined by two-sided log-rank test, n = 14. i Survival curves for mice orthotopically lung implanted with NCI-H1975 cells under indicated treatment. […] Data are means ± SEM of three independent assays. Statistical significance between two groups was determined with two-tailed Student’s t test. Statistical significance among groups was determined by one-way ANOVA test. Source data are provided as a Source Data file. […]
a, Quantified tumor weight from mice subcutaneously inoculated with A549 cells under indicated treatment after tumor inoculation. Data are means ± SEM, n = 8. b, Representative graphs of liver and immunohistochemical staining of the liver sections with anti-hMitochondria […]
IB. Data are means ± SEM of 3 independent assays. Data in d-h are representatives of 3 independent assays. Statistical significance between two groups was determined by two-tailed Student’s t-test; Statistical significance among groups was determined by one-way ANOVA test. Source data are provided as a Source Data ﬁle.
For the subcutaneous tumor model, A549 (1.0×10 5), NCI-H1975 (3.0×105) or patient-derived NSCLC cancer cells (4.0×105) were injected subcutaneously into the right flank of each mouse to establish the NSCLC xenograft model. When average tumor volume reached about 100 mm3, mice were randomized into various groups for different sets of experiments. Tumor growth was monitored twice weekly with a caliper. Tumor volume (TV) was calculated using the formula: […]

[7] = H1975 cells, treatment for 12 hr

EGF: epidermal growth factor used as stimulus, 100 ng ml−1
Cell Surface EGFR(%MFI) ([1]; A549/Control-shRNA, DMSO or 10 μM monensin 4 h, then EGF 100 ng ml−1 1 h, flow cytometry, A549/control-shRNA without EGF = 100%, replicate 1): 80.5481 %MFI
Cell Surface EGFR(%MFI) ([1]; A549/Control-shRNA, same treatment, replicate 2): 86.3646 %MFI
Cell Surface EGFR(%MFI) ([1]; A549/Control-shRNA, same treatment, replicate 3): 89 %MFI
Cell Surface EGFR(%MFI) ([1]; A549/TRIB3-shRNA, DMSO or 10 μM monensin 4 h, then EGF 100 ng ml−1 1 h, flow cytometry, A549/control-shRNA without EGF = 100%, replicate 1): 27.82 %MFI
Cell Surface EGFR(%MFI) ([1]; A549/TRIB3-shRNA, same treatment, replicate 2): 26.66 %MFI
Cell Surface EGFR(%MFI) ([1]; A549/TRIB3-shRNA, same treatment, replicate 3): 25.66 %MFI

CC[C@H](C)[C@H](NC(=O)[C@H](CCCNC(=N)N)NC(=O)[C@H](CC(C)C)NC(=O)[C@H](CC(C)C)NC(=O)[C@H](C)NC(=O)[C@H](CCC(N)=O)NC(=O)[C@@H](N)CC(N)=O)C(=O)N[C@@H](CC(C)C)C(=O)N[C@@H](CCCNC(=N)N)C(=O)N[C@@H](CCC(=O)O)C(=O)N[C@H](C(=O)N[C@@H](CCC(=O)O)C(=O)N[C@@H](Cc1ccccc1)C(=O)N[C@@H](CCCCN)C(=O)N[C@@H](CCCCN)C(=O)O)[C@@H](C)O [JGZ]
Fraction Intact (%) ([2]; time 45 min, replicate 1): 15.4158%
Fraction Intact (%) ([2]; time 45 min, replicate 2): 19.3884%
Fraction Intact (%) ([2]; time 45 min, replicate 3): 17.4109%
Fraction Intact (%) ([2]; time 90 min, replicate 1): 4.517%
Fraction Intact (%) ([2]; time 90 min, replicate 2): 5.842%
Fraction Intact (%) ([2]; time 90 min, replicate 3): 5.149%
Fraction Intact (%) ([2]; time 135 min, replicate 1): 1.978%
Fraction Intact (%) ([2]; time 135 min, replicate 2): 2.87%
Fraction Intact (%) ([2]; time 135 min, replicate 3): 2.235%
Fraction Intact (%) ([2]; time 180 min, replicate 1): 0.9859%
Fraction Intact (%) ([2]; time 180 min, replicate 2): 1.636%
Fraction Intact (%) ([2]; time 180 min, replicate 3): 1.16%
Fraction Intact (%) ([2]; time 225 min, replicate 1): 0.5923%
Fraction Intact (%) ([2]; time 225 min, replicate 2): 0.9865%
Fraction Intact (%) ([2]; time 225 min, replicate 3): 0.582%
Fraction Intact (%) ([2]; time 270 min, replicate 1): 0.003342%
Fraction Intact (%) ([2]; time 270 min, replicate 2): 0.3276%
Fraction Intact (%) ([2]; time 270 min, replicate 3): 0.1279%
Fraction Intact (%) ([2]; time 360 min, replicate 1): 0%
Fraction Intact (%) ([2]; time 360 min, replicate 2): 0.07064%
Fraction Intact (%) ([2]; time 360 min, replicate 3): 0.09951%
Fraction Intact (%) ([2]; time 450 min, replicate 1): 0%
Fraction Intact (%) ([2]; time 450 min, replicate 2): 0.04231%
Fraction Intact (%) ([2]; time 450 min, replicate 3): 0.01388%
Fraction Intact (%) ([2]; time 540 min, replicate 1): 0%
Fraction Intact (%) ([2]; time 540 min, replicate 2): 0.01049%
Fraction Intact (%) ([2]; time 540 min, replicate 3): 0.003119%

C=CC(=O)Nc1cc(Nc2nccc(-c3cn(C)c4ccccc34)n2)c(OC)cc1N(C)CCN(C)C [AZD9291]
expression / phosphorylation of STAT3, STAT5 (and ERK1/2) in xenograft tumor tissue [3]: upregulated the expression and phosphorylation of STAT3, STAT5, and ERK1/2
expression of EGFR and TRIB3 in xenograft tumor tissue [3]: reduced TRIB3 and EGFR expression
expression of pEGFR T654, PKCα, TRIB3 and EGFR [4, 7]: had no effect
pEGFR Y1068 [4, 7]: markedly reduced
phosphorylation and expression of HER2 ([4]; NCI-H1975 cells, 5 µM peptide or 0.5 µM AZD9291, 24 hr): suppressive effect on HER2 phosphorylation
Tumor Weight ([5]; animal 1): 0.09 g
Tumor Weight ([5]; animal 2): 0.11 g
Tumor Weight ([5]; animal 3): 0.04 g
Tumor Weight ([5]; animal 4): 0.05 g
Tumor Weight ([5]; animal 5): 0.07 g
Tumor Weight ([5]; animal 6): 0.08 g
Tumor Weight ([5]; animal 7): 0.02 g
Tumor Weight ([5]; animal 8): 0.08 g

COc1cc2ncnc(Nc3ccc(F)c(Cl)c3)c2cc1OCCCN1CCOCC1 [gefitinib]
Tumor Weight ([6]; animal 1): 0.95 g
Tumor Weight ([6]; animal 2): 0.28 g
Tumor Weight ([6]; animal 3): 0.5 g
Tumor Weight ([6]; animal 4): 0.76 g
Tumor Weight ([6]; animal 5): 0.71 g
Tumor Weight ([6]; animal 6): 0.63 g
Tumor Weight ([6]; animal 7): 0.92 g
Tumor Weight ([6]; animal 8): 0.87 g
Tumor Weight ([5]; animal 1): 0.19 g
Tumor Weight ([5]; animal 2): 0.56 g
Tumor Weight ([5]; animal 3): 0.23 g
Tumor Weight ([5]; animal 4): 0.63 g
Tumor Weight ([5]; animal 5): 0.13 g
Tumor Weight ([5]; animal 6): 0.48 g
Tumor Weight ([5]; animal 7): 0.33 g
Tumor Weight ([5]; animal 8): 0.37 g
